ChEMBL document CHEMBL1201862, “PubChem BioAssay data set” (2004)
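These data come from cells grown in 96-well plates and exposed to compound for 48 hours at five concentrations. GI50 = concentration required for 50% inhibition of growth.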 Calls of active or inactive are those of the source. Cut-off read from the data, not from the text of the source: active = GI50 up to about 1.1 µM and inactive = higher.

Columns and labels:
Test in all cases: DTP human tumour cell line panel, 48 h
[1] = test system: LXFL 529
[2] = test system: HCT-15
[3] = test system: NCI-H522
[4] = test system: HCT-116
[5] = test system: U-251
[6] = test system: SNB-78
[7] = test system: HCC 2998
[8] = test system: NCI-H460
[9] = test system: KM-20L2
[10] = test system: HT-29
[11] = test system: SNB-19
[12] = test system: HL-60
[13] = test system: SF-268
[14] = test system: NCI-H226
[15] = test system: 786-0
[16] = test system: SK-MEL-5
[17] = test system: SK-MEL-2
[18] = test system: DMS-273
[19] = test system: M19-MEL
[20] = test system: ACHN
[21] = test system: UACC-62
[22] = test system: SNB-75
[23] = test system: RXF 393
[24] = test system: SN12C
[25] = test system: SK-OV-3
[26] = test system: Malme-3M
[27] = test system: A498
[28] = test system: OVCAR-5
[29] = test system: UACC-257
[30] = test system: HOP-92
[31] = test system: EKVX
[32] = test system: DMS-114
[33] = test system: OVCAR-8
[34] = test system: SF-295
[35] = test system: COLO 205
[36] = test system: M14
[37] = test system: SW-620
[38] = test system: DLD-1
[39] = test system: OVCAR-4
[40] = test system: KM12
[41] = test system: HOP-18
[42] = test system: CAKI-1
[43] = test system: XF498
[44] = test system: UO-31
[45] = test system: CCRF-CEM
[46] = test system: SF-539
[47] = test system: HOP-62
[48] = test system: K562
[49] = test system: TK-10
[50] = test system: LOX IMVI
[51] = test system: A549
[52] = test system: NCI-H23
[53] = test system: OVCAR-3
[54] = test system: RPMI-8226
[55] = test system: IGROV-1
[56] = test system: SK-MEL-28
[57] = test system: SR
[58] = test system: MOLT-4

O=C(N/N=C1\C(=O)N(c2nccs2)C(=O)C(=O)C1c1nc2ccccc2s1)c1ccccc1O (configuration not stated)
GI50 [1]: 32 µM (inactive) | GI50 [2]: 41.8 µM | GI50 [3]: 30.2 µM (inactive) | GI50 [4]: 29.9 µM (inactive) | GI50 [5]: 49.8 µM (inactive) | GI50 [6]: 33.3 µM (inactive) | GI50 [7]: 15 µM (inactive) | GI50 [8]: 53.3 µM (inactive) | GI50 [9]: > 100 µM (inactive) | GI50 [10]: > 100 µM (inactive) | GI50 [11]: 60 µM (inactive) | GI50 [12]: 36.7 µM (inactive) | GI50 [13]: 12.1 µM (inactive) | GI50 [14]: 71.1 µM (inactive) | GI50 [15]: > 100 µM (inactive) | GI50 [16]: 47.5 µM (inactive) | GI50 [17]: > 100 µM (inactive) | GI50 [18]: 31.8 µM (inactive) | GI50 [19]: 87.1 µM (inactive) | GI50 [20]: 28.6 µM (inactive) | GI50 [21]: 31.3 µM (inactive) | GI50 [22]: 3.3 µM (inactive) | GI50 [23]: 21.1 µM (inactive) | GI50 [24]: 39.1 µM (inactive) | GI50 [25]: > 100 µM (inactive) | GI50 [26]: > 100 µM (inactive) | GI50 [27]: 65.3 µM (inactive) | GI50 [28]: > 100 µM (inactive) | GI50 [29]: 35.7 µM (inactive) | GI50 [30]: > 100 µM (inactive) | GI50 [31]: > 100 µM (inactive) | GI50 [32]: 28.3 µM (inactive) | GI50 [33]: 43 µM (inactive) | GI50 [34]: 47.5 µM (inactive) | GI50 [35]: > 100 µM (inactive) | GI50 [36]: > 100 µM (inactive) | GI50 [37]: 47.9 µM (inactive) | GI50 [38]: 71.1 µM (inactive) | GI50 [39]: 39.8 µM (inactive) | GI50 [40]: 54.5 µM (inactive) | GI50 [41]: 10.1 µM (inactive) | GI50 [42]: > 100 µM (inactive) | GI50 [43]: 27.1 µM (inactive) | GI50 [44]: 8.22 µM (inactive) | GI50 [45]: 39.5 µM (inactive) | GI50 [46]: 28.1 µM (inactive) | GI50 [47]: 23.9 µM (inactive) | GI50 [48]: 19.7 µM (inactive) | GI50 [49]: > 100 µM (inactive) | GI50 [50]: 44.3 µM (inactive) | GI50 [51]: 52.1 µM (inactive) | GI50 [52]: 29.5 µM (inactive) | GI50 [53]: 35.9 µM (inactive) | GI50 [54]: 61.4 µM (inactive) | GI50 [55]: 25.9 µM (inactive) | GI50 [56]: 88.1 µM (inactive)

BrC1(Br)C2/C=C\CCCCC21 (configuration not stated)
GI50 [1]: > 100 µM (inactive) | GI50 [3]: > 100 µM (inactive) | GI50 [4]: > 100 µM (inactive) | GI50 [5]: > 100 µM (inactive) | GI50 [6]: > 100 µM (inactive) | GI50 [7]: > 100 µM (inactive) | GI50 [8]: > 100 µM (inactive) | GI50 [9]: > 100 µM (inactive) | GI50 [10]: > 100 µM (inactive) | GI50 [11]: > 100 µM (inactive) | GI50 [12]: > 100 µM (inactive) | GI50 [13]: > 100 µM (inactive) | GI50 [57]: > 100 µM (inactive) | GI50 [14]: > 100 µM (inactive) | GI50 [15]: > 100 µM (inactive) | GI50 [17]: > 100 µM (inactive) | GI50 [18]: > 100 µM (inactive) | GI50 [19]: > 100 µM (inactive) | GI50 [20]: > 100 µM (inactive) | GI50 [23]: > 100 µM (inactive) | GI50 [24]: > 100 µM (inactive) | GI50 [26]: > 100 µM (inactive) | GI50 [27]: > 100 µM (inactive) | GI50 [28]: > 100 µM (inactive) | GI50 [29]: > 100 µM (inactive) | GI50 [30]: 42.3 µM (inactive) | GI50 [31]: > 100 µM (inactive) | GI50 [58]: > 100 µM (inactive) | GI50 [33]: > 100 µM (inactive) | GI50 [34]: > 100 µM (inactive) | GI50 [35]: > 100 µM (inactive) | GI50 [37]: > 100 µM (inactive) | GI50 [39]: > 100 µM (inactive) | GI50 [40]: > 100 µM (inactive) | GI50 [41]: > 100 µM (inactive) | GI50 [42]: > 100 µM (inactive) | GI50 [43]: > 100 µM (inactive) | GI50 [45]: > 100 µM (inactive) | GI50 [46]: > 100 µM (inactive) | GI50 [47]: > 100 µM (inactive) | GI50 [48]: > 100 µM (inactive) | GI50 [49]: > 100 µM (inactive) | GI50 [50]: > 100 µM (inactive) | GI50 [51]: > 100 µM (inactive) | GI50 [52]: > 100 µM (inactive) | GI50 [55]: > 100 µM (inactive) | GI50 [56]: > 100 µM (inactive)

CCCCCCCCCCCCCCCCCCC1=C(O)C(=O)C=C(OC)C1=O
GI50 [1]: 29.6 µM (inactive) | GI50 [2]: 29.5 µM | GI50 [3]: 28.4 µM (inactive) | GI50 [4]: 43.7 µM (inactive) | GI50 [5]: 39 µM (inactive) | GI50 [6]: 71.9 µM (inactive) | GI50 [7]: 38.3 µM (inactive) | GI50 [8]: 88.7 µM (inactive) | GI50 [9]: 42.9 µM (inactive) | GI50 [10]: 88.9 µM (inactive) | GI50 [11]: 61.4 µM (inactive) | GI50 [12]: 22.5 µM (inactive) | GI50 [13]: 38.5 µM (inactive) | GI50 [57]: 43.8 µM (inactive) | GI50 [14]: 62.5 µM (inactive) | GI50 [15]: 34.3 µM (inactive) | GI50 [16]: 40 µM (inactive) | GI50 [17]: 26.5 µM (inactive) | GI50 [18]: 55.2 µM (inactive) | GI50 [19]: 39.1 µM (inactive) | GI50 [20]: 28.7 µM (inactive) | GI50 [21]: 27.8 µM (inactive) | GI50 [22]: 30.6 µM (inactive) | GI50 [23]: 43.6 µM (inactive) | GI50 [24]: 45.4 µM (inactive) | GI50 [25]: > 100 µM (inactive) | GI50 [26]: 64.9 µM (inactive) | GI50 [27]: > 100 µM (inactive) | GI50 [28]: 39.5 µM (inactive) | GI50 [29]: 78.2 µM (inactive) | GI50 [30]: 80.4 µM (inactive) | GI50 [31]: 41.7 µM (inactive) | GI50 [32]: 21.7 µM (inactive) | GI50 [58]: 21.1 µM (inactive) | GI50 [33]: 32.4 µM (inactive) | GI50 [34]: 36.5 µM (inactive) | GI50 [35]: 48.5 µM (inactive) | GI50 [36]: 53.2 µM (inactive) | GI50 [37]: 51.4 µM (inactive) | GI50 [38]: 47.3 µM (inactive) | GI50 [39]: 46.7 µM (inactive) | GI50 [40]: 35.2 µM (inactive) | GI50 [41]: 43 µM (inactive) | GI50 [42]: 39.5 µM (inactive) | GI50 [43]: > 100 µM (inactive) | GI50 [44]: 85.5 µM (inactive) | GI50 [46]: 45.1 µM (inactive) | GI50 [47]: 34.3 µM (inactive) | GI50 [49]: 40.4 µM (inactive) | GI50 [51]: 46.8 µM (inactive) | GI50 [52]: 26 µM (inactive) | GI50 [53]: 41.8 µM (inactive) | GI50 [55]: 38.8 µM (inactive) | GI50 [56]: 36.4 µM (inactive)
